Where two headings read alike, the source gives them in different places.
Biological target: T1, hM5 (Homo sapiens, UniProt P08912)
T1 construct: expressed in transfected cells
T1 sequence (P08912 1-532): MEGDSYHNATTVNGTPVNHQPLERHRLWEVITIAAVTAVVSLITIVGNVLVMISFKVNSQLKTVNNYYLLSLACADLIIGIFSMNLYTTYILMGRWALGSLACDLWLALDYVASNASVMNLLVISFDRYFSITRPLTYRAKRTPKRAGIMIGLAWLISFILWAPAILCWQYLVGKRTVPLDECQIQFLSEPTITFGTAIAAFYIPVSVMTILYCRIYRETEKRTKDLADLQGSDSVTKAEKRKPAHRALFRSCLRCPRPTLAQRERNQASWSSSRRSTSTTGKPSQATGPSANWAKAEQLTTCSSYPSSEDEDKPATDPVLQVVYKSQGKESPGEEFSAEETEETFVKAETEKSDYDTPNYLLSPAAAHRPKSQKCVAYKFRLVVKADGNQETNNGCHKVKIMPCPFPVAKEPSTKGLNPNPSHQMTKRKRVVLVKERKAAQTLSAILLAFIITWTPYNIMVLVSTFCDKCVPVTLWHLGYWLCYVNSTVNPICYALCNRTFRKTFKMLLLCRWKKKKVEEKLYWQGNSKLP
Experiment: Calcium mobilization concentration-response (IC50 vs EC80 acetylcholine), CHO hM5
Assay type: cell-based
Settings: CELL LINE hM5, read-out: IC50
Summary of the method: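 CHO cells stably expressing hM5, dye-loaded, in HBSS/20 mM HEPES/2.5 mM probenecid, pH 7.4. Compounds were pre-incubated 140 s before an EC80 acetylcholine challenge, with calcium flux read kinetically.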

[1] = calcium mobilization, EC80 acetylcholine addition

Row | SMILES | IC50 (vs EC80 acetylcholine) | IC50 [1]
1 | COc1cc2ncnn2cc1C1CCN(S(=O)(=O)c2ccc3ncsc3c2)CC1 [Compound 82, 6-((4-(7-methoxy-[1,2,4]triazolo[1,5-a]pyridin-6-yl)piperidin-1-yl)sulfonyl)benzo[d]thiazole] |  | > 10000 nM
2 | Cc1cc2ncnn2cc1C1CCN(S(=O)(=O)c2ccc3c(c2)CCO3)C1 (centres unmarked) [Compound 126, 6-(1-((2,3-dihydrobenzofuran-5-yl)sulfonyl)pyrrolidin-3-yl)-7-methyl-[1,2,4]triazolo[1,5-a]pyridine] |  | > 10000 nM
3 | Cc1cc(C#N)cnc1C1CCN(S(=O)(=O)c2cnn(C)c2C)CC1 [Compound 217, 6-(1-((1,5-Dimethyl-1H-pyrazol-4-yl)sulfonyl)piperidin-4-yl)-5-methylnicotinonitrile] |  | > 10000 nM
4 | Cc1cc(C#N)ncc1C1=CCN(S(=O)(=O)c2ccc3c(c2)CCO3)CC1 [Compound 240, 1′-((2,3-dihydrobenzofuran-5-yl)sulfonyl)-4-methyl-1′,2′,3′,6-tetrahydro-[3,4′-bipyridine]-6-carbonitrile] |  | > 10000 nM
5 | Cc1nc2cc(C)c(C3CCN(S(=O)(=O)c4cc5c(cc4C)OCC5C)CC3)cn2n1 (centres unmarked) [Compound 87] |  | 1300 nM
6 | Cc1cc2ncnn2cc1C1CCN(S(=O)(=O)c2ccc3c(c2F)C(C)CO3)CC1 (centres unmarked) [Compound 104, 6-(1-((4-fluoro-3-methyl-2,3-dihydrobenzofuran-5-yl)sulfonyl)piperidin-4-yl)-7-methyl-[1,2,4]triazolo[1,5-a]pyridine] |  | 114 nM
7 | O=S(=O)(c1cnc2n1CCC2)N1CC=C(c2cn3ncnc3cc2Cl)CC1 [Compound 207, 7-chloro-6-(1-((6,7-dihydro-5H-pyrrolo[1,2-a]imidazol-3-yl)sulfonyl)-1,2,3,6-tetrahydropyridin-4-yl)-[1,2,4]triazolo[1,5-a]pyridine] |  | 1600 nM
8 | Cc1cc2ncnn2cc1C1(F)CCN(S(=O)(=O)c2cnn(C)c2C)CC1 [Compound 173, 6-(1-((1,5-dimethyl-1H-pyrazol-4-yl)sulfonyl)-4-fluoropiperidin-4-yl)-7-methyl-[1,2,4]triazolo[1,5-a]pyridine] |  | 82 nM
9 | Cc1cc2ncnn2cc1C1CCN(S(=O)(=O)c2ccc3c(c2)nnn3C)CC1 [Compound 124, 1-methyl-5-((4-(7-methyl-[1,2,4]triazolo[1,5-a]pyridin-6-yl)piperidin-1-yl)sulfonyl)-1H-benzo[d][1,2,3]triazole] |  | > 10000 nM
10 | Cc1cc2nccn2nc1C1CCN(S(=O)(=O)c2ccc3c(c2)CCO3)CC1 [Compound 17, 6-(1-((2,3-dihydrobenzofuran-5-yl)sulfonyl)piperidin-4-yl)-7-methylimidazo[1,2-b]pyridazine] |  | 839 nM
11 | O=S(=O)(c1cnc2n1CCC2)N1CC=C(c2cc3ncnn3cc2Cl)CC1 [Compound 206, 6-chloro-7-(1-((6,7-dihydro-5H-pyrrolo[1,2-a]imidazol-3-yl)sulfonyl)-1,2,3,6-tetrahydropyridin-4-yl)-[1,2,4]triazolo[1,5-a]pyridine] |  | > 10000 nM
12 | Cc1cc2ncnn2cc1C1CCN(S(=O)(=O)c2ccc(F)cc2)CC1 [Compound 153, 6-(1-((4-fluorophenyl)sulfonyl)piperidin-4-yl)-7-methyl-[1,2,4]triazolo[1,5-a]pyridine] |  | 4100 nM
13 | O=S(=O)(c1ccc2ncsc2c1)N1CCC(c2cc3cc[nH]c3cn2)CC1 [Compound 25, 6-((4-(1H-pyrrolo[2,3-c]pyridin-5-yl)piperidin-1-yl)sulfonyl)benzo[d]thiazole] |  | > 10000 nM

More lines, now with the values ahead:

Row | IC50 (vs EC80 acetylcholine) | IC50 [1] | SMILES
14 | 47 nM |  | [2H]C1([2H])CC(c2cn3ncnc3cc2C)CC([2H])([2H])N1S(=O)(=O)c1cnc(C)o1 [Compound 568, 2-methyl-5-((4-(7-methyl-[1,2,4]triazolo[1,5-a]pyridin-6-yl)piperidin-1-yl-2,2,6,6-d4)sulfonyl)oxazole]
15 | 8 nM |  | Cc1cc2ncnn2cc1C1CCN(S(=O)(=O)c2cnn(C)c2Br)CC1 [Compound 522, 6-(1-((5-Bromo-1-methyl-1H-pyrazol-4-yl)sulfonyl)piperidin-4-yl)-7-methyl-[1,2,4]triazolo[1,5-a]pyridine]
16 | 371 nM |  | Cc1cc2ncnn2cc1C1CCN(S(=O)(=O)c2cnn(C)c2CN)CC1 [Compound 529, (1-methyl-4-((4-(7-methyl-[1,2,4]triazolo[1,5-a]pyridin-6-yl)piperidin-1-yl)sulfonyl)-1H-pyrazol-5-yl)methanamine]
17 | 102 nM |  | O=S(=O)(c1cnn2ccccc12)N1CCC(c2cn3ncnc3cc2C(F)(F)F)CC1 [Compound 511, 6-(1-(pyrazolo[1,5-a]pyridin-3-ylsulfonyl)piperidin-4-yl)-7-(trifluoromethyl)-[1,2,4]triazolo[1,5-a]pyridine]
18 |  | 1100 nM | Cc1cc2ncnn2cc1C1CCN(S(=O)(=O)c2ncn(C)c2Cl)CC1 [Compound 321, 6-(1-((5-chloro-1-methyl-1H-imidazol-4-yl)sulfonyl)piperidin-4-yl)-7-methyl-[1,2,4]triazolo[1,5-a]pyridine]
19 | 12 nM |  | COc1c(S(=O)(=O)N2CCC(c3cn4ncnc4cc3C)CC2)cnn1C [Compound 573, 6-(1-((5-methoxy-1-methyl-1H-pyrazol-4-yl)sulfonyl)piperidin-4-yl)-7-methyl-[1,2,4]triazoto[1,5-a]pyridine]
20 | 414 nM |  | Cn1ncc(S(=O)(=O)N2CCC(c3cn4ncnc4cc3C(F)F)CC2)c1CC#N [Compound 456, 2-(4-((4-(7-(difluoromethyl)-[1,2,4]triazolo[1,5-a]pyridin-6-yl)piperidin-1-yl)sulfonyl)-1-methyl-1H-pyrazol-5-yl)acetonitrile]
21 |  | 106 nM | CCc1cc2ncnn2cc1C1CCN(S(=O)(=O)c2c(Cl)nc3sccn23)CC1 [Compound 336, 6-chloro-5-((4-(7-ethyl-[1,2,4]triazolo[1,5-a]pyridin-6-yl)piperidin-1-yl)sulfonyl)imidazo[2,1-b]thiazole]
22 | 114 nM |  | [2H]C([2H])([2H])Oc1c(S(=O)(=O)N2CCC(c3cn4ncnc4cc3C(F)(F)F)CC2)cnn1C [Compound 615, 6-(1-((5-(methoxy-d3)-1-methyl-1H-pyrazol-4-yl)sulfonyl)piperidin-4-yl)-7-(trifluoromethyl)-[1,2,4]triazoto[1,5-a]pyridine]
23 | 33 nM |  | Cc1c(C2CCN(S(=O)(=O)c3cnn4ccccc34)CC2)cn2ncnc2c1F [Compound 545, 8-fluoro-7-methyl-6-(1-(pyrazolo[1,5-a]pyridin-3-ylsulfonyl)piperidin-4-yl)-[1,2,4]triazolo[1,5-a]pyridine]
24 |  | 6900 nM | Cc1ncc(S(=O)(=O)N2CC=C(c3cn4nc(C(F)F)nc4cc3C)CC2)s1 [Compound 317, 5-((4-(2-(Difluoromethyl)-7-methyl-[1,2,4]triazolo[1,5-a]pyridin-6-yl)-3,6-dihydropyridin-1(2H)-yl)sulfonyl)-2methylthiazole]
25 |  | 113 nM | Cc1c(S(=O)(=O)N2CCC(c3cn4ncnc4cc3C(F)(F)F)CC2)c(Cl)nn1C [Compound 341, 6-(1-((3-chloro-1,5-dimethyl-1H-pyrazol-4-yl)sulfonyl)piperidin-4-yl)-7-(trifluoromethyl)-[1,2,4]triazolo[1,5-a]pyridine]
26 | 181 nM |  | Cc1cc(S(=O)(=O)N2CCC(F)(c3cn4ncnc4cc3C)CC2)sn1 [Compound 561, 5-((4-fluoro-4-(7-methyl-[1,2,4]triazolo[1,5-a]pyridin-6-yl)piperidin-1-yl)sulfonyl)-3-methylisothiazole]
27 |  | 212 nM | O=S(=O)(c1cnn2c1CCCC2)N1CC=C(c2cc3ncnn3cc2Cl)CC1 [Compound 241, 6-chloro-7-(1-((4,5,6,7-tetrahydropyrazolo[1,5-a]pyridin-3-yl)sulfonyl)-1,2,3,6-tetrahydropyridin-4-yl)-[1,2,4]triazolo[1,5-a]pyridine]
28 | 1310 nM |  | O=S(=O)(c1cnn2c1CCC2)N1CCC(F)(c2cn3ncnc3cc2F)CC1 [Compound 505, 6-(1-((5,6-dihydro-4H-pyrrolo[1,2-b]pyrazol-3-yl)sulfonyl)-4-fluoropiperidin-4-yl)-7-fluoro-[1,2,4]triazolo[1,5-a]pyridine]
29 | 234 nM |  | Cc1nsc(S(=O)(=O)N2CCC(c3cn4ncnc4cc3Cl)CC2)n1 [Compound 608, 5-((4-(7-Chloro-[1,2,4]triazolo[1,5-a]pyridin-6-yl)piperidin-1-yl)sulfonyl)-3-methyl-1,2,4-thiadiazole]
30 | > 10000 nM |  | Cn1cnnc1S(=O)(=O)N1CCC(c2cn3ncnc3cc2C(F)F)CC1 [Compound 517, 7-(difluoromethyl)-6-(1-((4-methyl-4H-1,2,4-triazol-3-yl)sulfonyl)piperidin-4-yl)-[1,2,4]triazolo[1,5-a]pyridine]
31 | 529 nM |  | COc1ncc(S(=O)(=O)N2CCC(c3cn4ncnc4cc3C)CC2)s1 [Compound 600, 2-methoxy-5-((4-(7-methyl-[1,2,4]triazolo[1,5-a]pyridin-6-yl)piperidin-1-yl)sulfonyl)thiazole]
32 | 318 nM |  | Cc1ncc(S(=O)(=O)N2CCC(c3cn4ncnc4c(F)c3C)CC2)o1 [Compound 486, 5-((4-(8-fluoro-7-methyl-[1,2,4]triazolo[1,5-a]pyridin-6-yl)piperidin-1-yl)sulfonyl)-2-methyloxazole]
